Data published in patent publication US5914235A (Eli Lilly and Company, priority 1997, dated 1999).
Several values for one entry are separate records, joined by “and”; a condition that tells them apart may be missing. Identical values can stand only once. Like-named read-outs stand apart in the source and are kept apart here.

Columns and labels:
MAO = format: biochemical, human
Method: MAO activity was measured with [^14 C]tyramine as substrate using a modification of the method by Yu [P. H. YU, Neuromethods, Neurotransmitter Enzymes, A. A. Boulton, G. B. Baker and P. H. Yu, 235-272, Humana Press, Clifton, N.J. (1986))]. Membranes were incubated with [^14 C]tyramine (0.5 mM) at 21° C., pH 7.4 for 40 min. Enzyme activity was stopped by lowering pH to 1.0 with 2 M HCl. The radiolabeled products of MAO degradation (p-hydroxyphenylacetic acid and p-hydroxymandelic acid) were then extracted into toluene ethyl acetate by vortexing for 15 min and aliquots of the organic phase counted. Extraction was enhanced by the addition of a 1 mg/ml carrier concentration of both products and saturating concentration of NaCl.
(§1) Binding data were calculated as fmol bound ligand/mg protein. Protein was determined by the Lowry method. Binding constants were calculated by nonlinear curve fitting (Lundon Software) and the fit to a one or two site model was tested using two-way ANOVA. Relative MAO activity was calculated as CPM/mg protein/min or moles/mg protein/min.
Data are mean±SEM of 3 experiments. […] The data is depicted in FIG. 5.
Data are expressed as percent of maximum binding or MAO activity and represent the mean±SEM of 3 experiments. […] The data is depicted in FIG. 6.

rat liver MAO B = conditions: cited from earlier work
rat liver MAO A = conditions: cited from earlier work
[1] = target: T1, [^3 H]BFI binding sites (I2 binding site) (Homo sapiens, UniProt P27338); experiment: Ligand competition for [^3 H]BFI binding in human cortex; conditions: for Affinity in competition for [^3 H]BFI binding: human brain
T1 construct: Frozen sections of human cortex (Brodman's areas 8,9,10), human medulla; from tissue; host or cells: P2 membranes of human cortex (Brodmann areas 8, 9, 10) and human medulla (NRL)
T1 sequence (P27338 2-520 limits assumed): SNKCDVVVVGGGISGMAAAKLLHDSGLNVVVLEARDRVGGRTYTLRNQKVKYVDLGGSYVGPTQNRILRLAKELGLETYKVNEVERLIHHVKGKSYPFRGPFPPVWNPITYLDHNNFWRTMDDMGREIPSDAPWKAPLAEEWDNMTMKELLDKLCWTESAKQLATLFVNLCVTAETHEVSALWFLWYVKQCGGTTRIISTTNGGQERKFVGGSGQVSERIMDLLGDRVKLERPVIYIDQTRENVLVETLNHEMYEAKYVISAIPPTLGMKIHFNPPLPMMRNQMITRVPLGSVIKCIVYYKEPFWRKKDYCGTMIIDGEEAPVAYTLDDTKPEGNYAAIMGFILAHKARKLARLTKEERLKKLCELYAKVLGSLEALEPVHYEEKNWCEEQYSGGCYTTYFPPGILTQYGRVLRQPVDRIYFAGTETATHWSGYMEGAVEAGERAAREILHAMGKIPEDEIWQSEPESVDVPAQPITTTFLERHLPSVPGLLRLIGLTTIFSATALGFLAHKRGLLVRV
Method: (§2) Membrane fractions were isolated at 4° C. using differential centrifugation as follows: Homogenates were centrifuged at 500×g to remove nuclei and cell debris followed by 45,000×g to obtain the P2 membrane fraction. The P2 pellet was washed twice with 50 mM Tris-HCl buffer. Between washes the pellet resuspension was incubated for 30 min at 25° C. to allow dissociation of endogenous ligands from their receptors. The final pellet was resuspended in 50 mM Tris-HCl, pH 7.5, and stored at -70° C. until used.
as §1

I2 sites = conditions: read-out: KD of [^3 H]BFI binding; rabbit cortex, previously reported; cited from earlier work
[2] = target: [^3 H]BFI binding sites (I2 binding site); experiment: Ligand competition for [^3 H]BFI binding in human cortex; conditions: human cortex, 8 nM [^3 H]BFI, two-site fit
Method: as §2, §1

Structure (SMILES): N[C@@H]1C[C@H]1c1ccccc1 (relative stereo) [TCP, Tranylcypromine]
- Inhibition of MAO activity (MAO; 1 μM TCP preincubation (maximal potentiation of binding)): 80%
- TCP concentration of maximal inhibition of MAO activity (MAO; 40 min preincubation, washed): 3 µM
- Maximal inhibition of MAO activity (MAO; TCP concentrations >3 μM): 95%
- Potentiation of BFI binding in guinea pig tissues by TCP (BFI binding sites): not seen

Structure (SMILES): c1ccc2oc(C3=NCCN3)cc2c1 [BFI, 2-(2-benzofuranyl)-2-imidazoline]
- Inhibition of rat liver MAO B (rat liver MAO B): inhibits
- Inhibition of rat liver MAO A (rat liver MAO A): inhibits

Structure (SMILES): COC1(C2=NCCN2)COc2ccccc2O1 (stereo not drawn) [RX821002]
- Ki [1]: 9400 ± 1800 nM
- Affinity in competition for [^3 H]BFI binding [1]: low affinity

Structure (SMILES): c1ccc2oc(C3=NCCN3)cc2c1 [[^3 H]BFI, 2-(2-benzofuranyl)-2-imidazoline]
- Kd (I2 sites): 2.7 nM

Structure (SMILES): N=C(N)NC(=O)c1nc(Cl)c(N)nc1N [amiloride]
- Affinity in competition for [^3 H]BFI binding [1]: low affinity

Structure (SMILES): c1ccc(C2CC2)c(OCC2=NCCN2)c1 [cirazoline]
- Ki [1]: 13 ± 4.5 nM
- Affinity in competition for [^3 H]BFI binding [1]: high affinity

Structure (SMILES): Clc1cccc(Cl)c1N=C1NCCN1 [clonidine]
- Ki ([2]; read-out: Ki for competition of [^3 H]BFI binding, two-site model, first (high-affinity) value): 0.0734 ± 0.0246 µM
- Ki ([2]; read-out: Ki for competition of [^3 H]BFI binding, two-site model, second (low-affinity) value): 86.3 ± 11.1 µM
- Affinity in competition for [^3 H]BFI binding [1]: low affinity

Structure (SMILES): N=C(N)N/N=C/c1c(Cl)cccc1Cl [guanabenz]
- Ki [1]: 72.5 ± 24 nM
- Affinity in competition for [^3 H]BFI binding [1]: high affinity

Structure (SMILES): c1ccc2c(c1)OCC(C1=NCCN1)O2 (stereo not drawn) [idazoxan]
- Ki [1]: 80.4 ± 17 nM
- Inhibition of rat liver MAO A (rat liver MAO A): not

Structure (SMILES): COc1nc(C)nc(Cl)c1N=C1NCCN1 [moxonidine]
- Affinity in competition for [^3 H]BFI binding [1]: low affinity

Structure (SMILES): C#CCN(C)Cc1ccccc1 [pargyline]
- Inhibition of basal MAO activity (MAO; preincubation with 10 μM pargyline, all durations (10, 30, 60 min)): > 90% and 90%
